System: sex-sorted sperm cells
Assay: CASA post-thaw motility of sex sorted bull sperm treated with OSR
Format: cell-based, bovine
Set-up: key to BCF: beat cross frequency in Hz; key to ALH: lateral head displacement in μm; key to STR / LIN: percent; key to Motile: percent motile sperm; key to VAP / VSL / VCL: velocity in μm/s
Conditions: 3 step
Description: 5. Sperm Motility Evaluations by CASA. A comparison of viewing chambers and slides can be done in a variety of IVOS instruments, which for example only can be a Hamilton-Thorne IVOS (Hamilton-Thorne, Beverly, Mass.). Instrument settings: image capture; frames per second=60; number of frames=30; cell detection; minimum contrast=50; minimum cell size=5; defaults, cell size=5; cell intensity=50; progressive cells, path velocity=50 um/s; straightness ≥70%; slow cells (um/s); average path velocity (VAP, <30 um/s), straight-line velocity (VSL, <15 um/s). The CASA motility variables measured can be a percentage of total motile sperm (motile), percentage of progressively motile sperm (progressive), VAO, VSL, curvilinear velocity (VCL, um/s), average lateral head displacement (ALK, um) and the number of times the sperm head crosses the mean path/s (BCF, Hz), straight-line sperm motility (STR, %), and linear sperm motility (LIN, %). See for instance, Lenz, R W, et al., J Anim Sci (2011) 89:383-388, incorporated by reference herein in its entirety.
One set of semen from each bull was used as a control while to the remaining sets of semen samples were added vitamin B12, as the antioxidant, at respective concentrations of 0.5 mg/ml and 0.25 mg/ml. For each sample, the same concentration of vitamin B12 was added (i) during the staining process, and (ii) in the catch fluid of the collection vessel. […] Sperm samples were sorted in “High Purity” mode, and the collected sex-sorted sperm were extended with a cryoextender, which in some cases again contained the same concentration of vitamin B12 and the samples were frozen. Three hours after thawing (which is a standard time frame to conduct quality control assessments on sorted frozen thawed sperm samples) the thawed samples were put through CASA, a machine that provides various data on sperm including motility and progressive motility information.
In the tables below: VAP (average path velocity (μm/s)); VSL (straight-line velocity (μm/s)); VCL (curvilinear velocity (μm/s)); ALH (average lateral head displacement (μm)); BCF (the number of times the sperm head crosses the mean path/s in Hz); STR (percent straight-line sperm motility); LIN (percent linear sperm motility); PIA (percent intact acrosomes); motile (percent motile sperm); and progressive (percent progressively motile sperm).
There is no correlation with regard to randomly assigned names such as “Bull A.” Bull A from Example 5 is not the same bull as Bull A from Example 7.
In both cases the concentration of the vitamin B12 was 1 mg/ml. For all other bulls in the table below unless otherwise indicated, the concentration of vitamin B12 added was also 1 mg/ml.
In an additional experiment, motility and progressive motility were checked 3.75 hours after thawing a sex sorted semen sample treated with the antioxidant. The OSR was not added to the control sample. The semen sample was derived from a single bull. 0.25 mg/ml concentration of vitamin B12 was added to the test sample during the staining step, the collecting step (in the catch fluid of the collecting vessel) and in the cryoprotectant extender prior to freezing the sample.
[…] The OSR was not added to the control samples. The semen samples were derived from two Holstein bulls.

[1] = Holstein 0 hr post-thaw, .25 mg/ml
[2] = Holstein 0 hr post-thaw, .35 mg/ml
[3] = Holstein 0 hr post-thaw, .45 mg/ml
[4] = Holstein 3 hr post-thaw (1st block), .25 mg/ml
[5] = Holstein 3 hr post-thaw (1st block), .35 mg/ml
[6] = Holstein 3 hr post-thaw (1st block), .45 mg/ml
[7] = Holstein 3 hr post-thaw (2nd block), .25 mg/ml
[8] = Holstein 3 hr post-thaw (2nd block), .35 mg/ml
[9] = Holstein 3 hr post-thaw (2nd block), .45 mg/ml
[10] = Holstein 6 hr post-thaw (1st block), .25 mg/ml
[11] = Holstein 6 hr post-thaw (1st block), .35 mg/ml
[12] = Holstein 6 hr post-thaw (1st block), .45 mg/ml
[13] = Holstein 6 hr post-thaw (2nd block), .25 mg/ml
[14] = Holstein 6 hr post-thaw (2nd block), .35 mg/ml
[15] = Holstein 6 hr post-thaw (2nd block), .45 mg/ml
[16] = Jersey 0 hr post-thaw, .25 mg/ml
[17] = Jersey 0 hr post-thaw, .35 mg/ml
[18] = Jersey 0 hr post-thaw, .45 mg/ml
[19] = Jersey 3 hr post-thaw, .25 mg/ml
[20] = Jersey 3 hr post-thaw, .35 mg/ml
[21] = Jersey 3 hr post-thaw, .45 mg/ml

O=C(O)CCC(=O)C(=O)O [AKG, Alpha-ketoglutarate]
ALH [1]: 8 | BCF [1]: 27 | LIN [1]: 48 | Motile [1]: 91 | Prog [1]: 75 | STR [1]: 82 | VAP [1]: 104 | VCL [1]: 185 | VSL [1]: 81 | ALH [2]: 7 | BCF [2]: 29 | LIN [2]: 51 | Motile [2]: 80 | Prog [2]: 65 | STR [2]: 85 | VAP [2]: 94 | VCL [2]: 165 | VSL [2]: 80 | ALH [3]: 7 | BCF [3]: 30 | LIN [3]: 57 | Motile [3]: 86 | Prog [3]: 75 | STR [3]: 89 | VAP [3]: 98 | VCL [3]: 162 | VSL [3]: 88 | ALH [4]: 7 | BCF [4]: 26 | LIN [4]: 45 | Motile [4]: 77 | Prog [4]: 60 | STR [4]: 81 | VAP [4]: 99 | VCL [4]: 176 | VSL [4]: 79 | ALH [5]: 6 | BCF [5]: 25 | LIN [5]: 50 | Motile [5]: 63 | Prog [5]: 48 | STR [5]: 83 | VAP [5]: 85 | VCL [5]: 145 | VSL [5]: 70 | ALH [6]: 5 | BCF [6]: 24 | LIN [6]: 56 | Motile [6]: 60 | Prog [6]: 56 | STR [6]: 85 | VAP [6]: 94 | VCL [6]: 145 | VSL [6]: 80 | ALH [7]: 6 | BCF [7]: 26 | LIN [7]: 47 | Motile [7]: 71 | Prog [7]: 55 | STR [7]: 81 | VAP [7]: 96 | VCL [7]: 169 | VSL [7]: 77 | ALH [8]: 5 | BCF [8]: 21 | LIN [8]: 50 | Motile [8]: 64 | Prog [8]: 38 | STR [8]: 84 | VAP [8]: 69 | VCL [8]: 117 | VSL [8]: 57 | ALH [9]: 6 | BCF [9]: 25 | LIN [9]: 53 | Motile [9]: 60 | Prog [9]: 50 | STR [9]: 84 | VAP [9]: 90 | VCL [9]: 144 | VSL [9]: 75 | ALH [10]: 6 | BCF [10]: 17 | LIN [10]: 39 | Motile [10]: 36 | Prog [10]: 7 | STR [10]: 76 | VAP [10]: 44 | VCL [10]: 87 | VSL [10]: 33 | ALH [11]: 7 | BCF [11]: 16 | LIN [11]: 40 | Motile [11]: 58 | Prog [11]: 7 | STR [11]: 76 | VAP [11]: 42 | VCL [11]: 80 | VSL [11]: 32 | ALH [12]: 5 | BCF [12]: 22 | LIN [12]: 48 | Motile [12]: 52 | Prog [12]: 22 | STR [12]: 82 | VAP [12]: 55 | VCL [12]: 96 | VSL [12]: 46 | ALH [13]: 6 | BCF [13]: 17 | LIN [13]: 39 | Motile [13]: 36 | Prog [13]: 7 | STR [13]: 76 | VAP [13]: 44 | VCL [13]: 87 | VSL [13]: 33 | ALH [14]: 7 | BCF [14]: 16 | LIN [14]: 40 | Motile [14]: 58 | Prog [14]: 7 | STR [14]: 76 | VAP [14]: 42 | VCL [14]: 80 | VSL [14]: 32 | ALH [15]: 5 | BCF [15]: 22 | LIN [15]: 48 | Motile [15]: 52 | Prog [15]: 22 | STR [15]: 82 | VAP [15]: 55 | VCL [15]: 96 | VSL [15]: 46 | ALH [16]: 7 | BCF [16]: 24 | LIN [16]: 48 | Motile [16]: 67 | Prog [16]: 51 | STR [16]: 83 | VAP [16]: 83 | VCL [16]: 152 | VSL [16]: 68 | ALH [17]: 6 | BCF [17]: 25 | LIN [17]: 47 | Motile [17]: 57 | Prog [17]: 43 | STR [17]: 82 | VAP [17]: 79 | VCL [17]: 146 | VSL [17]: 63 | ALH [18]: 6 | BCF [18]: 27 | LIN [18]: 56 | Motile [18]: 81 | Prog [18]: 66 | STR [18]: 87 | VAP [18]: 81 | VCL [18]: 133 | VSL [18]: 70 | ALH [19]: 5 | BCF [19]: 24 | LIN [19]: 46 | Motile [19]: 33 | Prog [19]: 16 | STR [19]: 79 | VAP [19]: 65 | VCL [19]: 117 | VSL [19]: 49 | ALH [20]: 6 | BCF [20]: 25 | LIN [20]: 45 | Motile [20]: 26 | Prog [20]: 10 | STR [20]: 80 | VAP [20]: 59 | VCL [20]: 110 | VSL [20]: 46 | ALH [21]: 6 | BCF [21]: 25 | LIN [21]: 45 | Motile [21]: 59 | Prog [21]: 25 | STR [21]: 78 | VAP [21]: 67 | VCL [21]: 66 | VSL [21]: 50

From patent publication US10226041B2, “Compositions and methods for improving the quality of processed sperm” (Inguran, LLC, priority 2011, dated 2019)
